Columns and labels:
[1] = test system: TNFα production in LPS-stimulated human monocytes; experiment: Cot Monocyte TNFα Cell Based Assay; conditions: Homo sapiens, Monocyte, TNFα in LPS-stimulated human monocytes; read-out: EC50 TNF
In short: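 TR-FRET read-out of total secreted TNFα, normalized as % control (unstimulated = 0%, LPS-stimulated = 100%). Cells (5,000/well) were exposed to compound 1 h at 37 °C, then to 50 pg/ml LPS for a further 4 h.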

[2] = target: T1, human Cot catalytic domain (30-397 amino acids) (Homo sapiens, UniProt P41279); experiment: High Throughput Cot Biochemical Assay (KinEASE TR-FRET); conditions: Cot biochemical HTRF (KinEASE TR-FRET) assay; read-out: IC50 HTRF
T1 construct: Purified recombinant human Cot catalytic domain (30-397 amino acids) was purchased from Cama Biosciences; purchased Cama Biosciences (so in the source)
T1 sequence (P41279 30-397): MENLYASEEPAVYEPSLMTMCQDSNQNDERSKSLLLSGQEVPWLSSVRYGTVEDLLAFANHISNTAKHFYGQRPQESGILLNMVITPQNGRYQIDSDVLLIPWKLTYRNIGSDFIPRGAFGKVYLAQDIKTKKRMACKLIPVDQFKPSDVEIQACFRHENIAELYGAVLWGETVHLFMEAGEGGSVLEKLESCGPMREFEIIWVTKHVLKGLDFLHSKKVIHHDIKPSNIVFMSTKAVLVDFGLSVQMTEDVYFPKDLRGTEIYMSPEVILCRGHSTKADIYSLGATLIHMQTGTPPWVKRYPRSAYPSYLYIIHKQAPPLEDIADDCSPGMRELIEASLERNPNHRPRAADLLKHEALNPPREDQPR
In short: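 TR-FRET readout: Eu-labeled phospho-specific antibody binds XL665-tagged STK3 peptide after phosphorylation by Cot (aa 30-397, 5 nM). Conditions: 400 μM ATP, 1 μM peptide, MOPS pH 7.0 buffer with MgOAc, DTT, BSA, NP-40, glycerol; 0.1% DMSO.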

| EC50 [1] | IC50 [2] | SMILES |
| --- | --- | --- |
| 3900 nM | 144 nM | CC[C@H](C)Nc1c(C#N)cnc2c(Cl)cc(N[C@@H](c3ccccc3)c3cn(C4CCN(C(C)(C)C)CC4)nn3)cc12 [Example 587, 4-(((S)-sec-butyl)amino)-6-(((S)-(1-(1-(tert-butyl)piperidin-4-yl)-1H-1,2,3-triazol-4-yl)(phenyl)methyl)amino)-8-chloroquinoline-3-carbonitrile] |
| 1020 nM | 17 nM | CC(C)n1cc([C@@H](Nc2cc(Cl)c3ncc(C#N)c(N[C@H](C)c4ccccc4)c3c2)c2ccccc2)nn1 [Example 588, 8-chloro-6-(((S)-(1-isopropyl-1H-1,2,3-triazol-4-yl)(phenyl)methyl)amino)-4-(((R)-1-phenylethyl)amino) quinoline-3-carbonitrile] |
| 8440 nM | 480 nM | CC[C@@H](C)Nc1c(C#N)cnc2c(Cl)cc(N[C@@H](c3ccccc3)c3cn(C(C)C)nn3)cc12 [Example 589, 4-(((R)-sec-butyl)amino)-8-chloro-6-(((S)-(1-isopropyl-1H-1,2,3-triazol-4-yl)(phenyl)methyl)amino)quinoline-3-carbonitrile] |
| 3520 nM | 131 nM | CC[C@@H](C)Nc1c(C#N)cnc2c(Cl)cc(N[C@@H](c3ccccc3)c3cn(C4CCN(C(C)(C)C)CC4)nn3)cc12 [Example 590, 4-(((R)-sec-butyl)amino)-6-(((S)-(1-(1-(tert-butyl)piperidin-4-yl)-1H-1,2,3-triazol-4-yl)(phenyl)methyl)amino)-8-chloroquinoline-3-carbonitrile] |
| 713 nM | 27 nM | CC(C)n1cc([C@@H](Nc2cc(Cl)c3ncc(C#N)c(Nc4cccc(Cl)c4F)c3c2)c2ccccc2)nn1 [Example 591, (S)-8-chloro-4-((3-chloro-2-fluorophenyl)amino)-6-(((1-isopropyl-1H-1,2,3-triazol-4-yl)(phenyl)methyl)amino) quinoline-3-carbonitrile] |
| 352 nM | 7 nM | CC[C@@H](Nc1c(C#N)cnc2c(Cl)cc(N[C@@H](c3ccccc3)c3cn(C(C)C)nn3)cc12)c1ccccc1 [Example 592, 8-chloro-6-(((S)-(1-isopropyl-1H-1,2,3-triazol-4-yl)(phenyl)methyl)amino)-4-(((R)-1-phenylpropyl)amino)quinoline-3-carbonitrile] |
| 147 nM | 1 nM | CC1CCN1C(=O)c1cccc([C@H](Nc2cc(Cl)c3ncc(C#N)c(Nc4ccc(F)c(Cl)c4)c3c2)c2cn(C3CCN(C(C)(C)C)CC3)nn2)c1 (stereo partly drawn) [Example 593, 6-(((1S)-(1-(1-(tert-butyl)piperidin-4-yl)-1H-1,2,3-triazol-4-yl)(3-(2-methylazetidine-1-carbonyl)phenyl)methyl)amino)-8-chloro-4-((3-chloro-4-fluorophenyl)amino)quinoline-3-carbonitrile] |
| 1720 nM | 1 nM | CC(C)(C)N1CCC(n2cc([C@@H](Nc3cc(Cl)c4ncc(C#N)c(Nc5ccc(F)c(Cl)c5)c4c3)c3cccc(C(=O)N4CC(O)C4)c3)nn2)CC1 [Example 594, (S)-6-(((1-(1-(tert-butyl)piperidin-4-yl)-1H-1,2,3-triazol-4-yl)(3-(3-hydroxyazetidine-1-carbonyl)phenyl)methyl)amino)-8-chloro-4-((3-chloro-4-fluorophenyl)amino)quinoline-3-carbonitrile] |
| 305 nM | 8 nM | CN(C)c1cccc([C@H](Nc2cc(Cl)c3ncc(C#N)c(Nc4ccc(F)c(Cl)c4)c3c2)c2cn(C3CCN(C(C)(C)C)CC3)nn2)c1 [Example 595, (S)-6-(((1-(1-(tert-butyl)piperidin-4-yl)-1H-1,2,3-triazol-4-yl)(3-(dimethylamino)phenyl)methyl)amino)-8-chloro-4-((3-chloro-4-fluorophenyl)amino)quinoline-3-carbonitrile] |

Reference: patent publication US10316017B2, “COT modulators and methods of use thereof” (Gilead Sciences, Inc., priority 2015, dated 2019)
